Entries after “also recorded” stand apart in the source; their conditions may differ.
How the values were obtained:
Assay type in all cases: in vivo, mouse
[1] = tested on: 4-HNE, oxidative stress in the kidneys; test: 4-HNE staining of kidney, HF-fed mice; details: HF diet mice; vs high fat diet group
Description: (§1) Mice, diet, and drug treatment. WT male C57/BL6 male mice were maintained on either a standard laboratory chow-fed diet (CFD) with 13% kcal fat, (diet #5053, Lab Diet, Inc, St. Louis, Mo.) or a high fat, western style diet (HFD) with 60% kcals from fat, (diet #58126, Lab Diet, Inc., St. Louis, Mo.) for 4 months. One month after the start of the high fat diet treatment, the high fat diet group was further split into 2 groups for 3 months: i) high fat diet and the drinking water containing 1% DMSO; ii) high fat diet and the drinking water containing 1.5 mg/100 ml AC261066, a specific RARβ agonist. Then mice were sacrificed by cervical dislocation. Blood and various tissue samples were harvested.
(§2) 4-hydroxynonenal (4-HNE) staining. Paraffin-embedded sections (from two to four mice per group) were deparaffinized and rehydrated, and antigen retrieval was performed using an antigen unmasking solution (Vector Laboratories, H-3300). After quenching endogenous peroxidase with 3% H2O2, the tissue sections were blocked with the blocking reagent (from the M.O.M. kit from Vector Laboratories). Then, tissue sections were incubated with a 4-HNE antibody (1:400; mouse monoclonal antibody; Abcam, ab48506) overnight at 4° C. The sections were then incubated with secondary antibodies (1:200, anti-mouse IgG from the M.O.M kit). […]

[2] = tested on: pancreatic islets (β-cells); test: Pancreatic islet size (insulin immunofluorescence) and pancreatic insulin content (ELISA); details: Ob/Ob and Db/Db models
Protocol: Immunofluorescence and Immunostaining Microscopy-Paraffin embedded pancreatic tissue sections were incubated with antibodies against: insulin (mouse monoclonal 1:300, #1061, Beta Cell Biology Consortium). We utilized Alexa-fluor 488 conjugated anti-mouse secondary antibody (1:500) (Invitrogen, Carlsbad, Calif.) for immunofluorescence labeling of insulin followed by visualization using a Nikon TE2000 inverted fluorescence microscope (Nikon, Inc).
Pancreatic Insulin Measurements-Pancreatic insulin levels were measured in lysates from pancreatic tissues using an ultrasensitive Insulin ELISA Kit (Alpco, Inc. Salem, N.H.) as per the manufacturers' instructions. Insulin concentrations were normalized to pancreatic protein concentrations determined using the DC protein assay (Bio-Rad, Inc. Hercules, Calif.) according to the manufacturers' protocol. Endocrine hormones levels are reported as mean±standard error of the mean (S.E.M) and P-values calculated using one-way analysis of variance followed by Bonferroni multiple comparison test post-hoc analysis.
Measurement of Pancreatic Endocrine Cell Mass.—Pancreatic endocrine cell mass was determined using a direct point counting method as previously described. […]

[3] = tested on: HF-fed and genetically obese mice; test: Tissue triglyceride analysis and H and E staining of liver, pancreas, kidney, muscle, adipose tissue
Description: Mice, diet, and drug treatment. Dietary Obesity Studies: Wild type (wt) male C57/BL6 male mice were maintained on either a standard laboratory chow-fed diet (Con) with 13% kcal fat, (diet #5053, Lab Diet, Inc, St. Louis, Mo.) or a high fat, western style diet (HFD) with 45% kcals from fat, (diet #58126, Lab Diet, Inc., St. Louis, Mo.) for 4 months. One month after the start of the HFD treatment, the Con and HFD groups werefurther split into 3 additional groups for […] to: i) remain on either Con or HFD and the drinking water containing 1% DMSO; ii) Con or HFD and drinking water containing 3.0 mg/100 ml AC261066, a specific RARβ agonist in 1% DMSO, or iii) Con or HFD and drinking water containing 3.0 mg/100 ml of AC55649, another specific RARβ agonist in 1% DMSO. All mice remained on their diets for 4 months. […]
Tissue Triglyceride Analysis: Total tissue lipids were extracted from using the Folch method. […] Tissue triglycerides were determined enzymatically using Triglycerides Reagent kit (Invitrogen, Life Technologies, Carlsbad, Calif., USA) according to the manufacture's protocol. Tissue triglycerides were normalized to tissue protein concentrations and reported as mean±standard error of the mean (S.E.M) and P-values were calculated using one-way analysis of variance followed by Bonferroni multiple comparison test post-hoc analysis.

[4] = tested on: 4-HNE, oxidative stress in pancreatic islets; test: 4-hydroxynonenal (4-HNE) staining of pancreas, HF-fed mice; details: HF diet mice, AC261066 in drinking water; vs HF-vehicle
Description: as §1, §2

Ob/Ob and Db/Db mice = test: Metabolic studies (body weight, GTT, insulin secretion, ITT) in Ob/Ob and Db/Db mice, 8 weeks
[5] = Serum triglyceride level measurement (bichromatic assay), Example 8; details: HF diet mice (Example 8); vs control diet
Description: as §1
Serum triglyceride level measurement. The analysis of serum triglyceride levels was carried out using a bichromatic assay at the Laboratory of Comparative Pathology of the Memorial Sloan-Kettering Cancer Center. Chow-fed diet (CFD) n=2; high fat diet (HFD) n=3; high fat diet+AC261066 (HFDAC) n=5.

## CCCCOCCOc1nc(-c2ccc(C(=O)O)c(F)c2)sc1C [AC261066]
[1]
  4-HNE level (oxidative stress, ROS) in kidneys: reduces oxidative stress; also recorded: lower
[2]
  pancreatic insulin content: diminishes
[2]; HF-fed mice
  number of large pancreatic islets (enlarged β-cells): diminishes
[3]
  accumulation of liver, pancreas, kidney, muscle and adipose triglycerides: reduces
[4]
  4-HNE level (oxidative stress) in pancreatic islets: reduces oxidative stress; also recorded: markedly lower
Ob/Ob and Db/Db mice; Ob/Ob mice
  pancreatic insulin secretion: decreased
Ob/Ob and Db/Db mice; genetically obese and diabetic Ob/Ob and Db/Db mice
  body weights: significant reductions
[5]
  serum triglyceride levels: does not increase; also recorded: does not affect

— US20220304945A1, “METHODS OF TREATING METABOLIC SYNDROME RELATED CONDITIONS USING RETINOIC ACID RECEPTOR AGONISTS” (Cornell University, priority 2014, published 2022)
